Results published in patent publication US8906829B2, “Synergistic algicidal compositions including hydrazone derivatives and copper” (Dow AgroSciences LLC, priority 2010, dated 2014).

What was measured:
C. reinhardtii CC-1928 = assay: Effect of copper on activity of hydrazones: in vitro growth inhibition of C. reinhardtii in TAP Cu minus / TAP Cu plus medium (Example 10); format: cell-based, Chlamydomonas reinhardtii; conditions: test compound 1 μg/mL, 48 h; for inhibition of growth at 1 µg/mL: Chlamydomonas reinhardtii, TAP Cu minus medium, read-out: % Inhn. Minus Copper Observed; for % Inhn. Plus Copper Observed: TAP Cu plus medium (CuCl2)
Description: In vitro toxicity assays against C. reinhardtii CC-1928 (wild type mt+137c green in dark subclone) obtained from the Chlamydomonas Resource Center at Duke University were conducted using TAP liquid growth medium described by Gorman and Levine Proc. Natl. Acad. Sci. USA 1965, 54, 1665-1669 except that CuSO4.5H2O, normally included as a component of Hutner's trace element stock solution (Hutner et al. Proc. Am. Philos. Soc. 1950, 94, 152-170), was omitted. The TAP medium lacking Cu (TAP Cu minus) was prepared by adding 400 mg NH4Cl, 10 mL of 100× Tris-Acetate (242 g Tris-base and 100 mL glacial acetic acid in 1000 mL milli Q water), and 8.3 mL of 120.5× phosphate buffer (14.34 g K2HPO4 and 7.26 g KH2PO4 in 1000 mL milli Q water) to milli Q water to make a total volume of 1 liter. The medium was treated with 0.5 g Chelex 100 resin (Bio-Rad Analytical grade, 50-100 mesh, sodium form, cat#142-2822) by stirring at room temperature for 1 hour. 900 mL were decanted and 45.9 mg of CaCl2.2H2O, 90 mg of MgSO4.7H2O and 0.9 mL Hutner's trace elements lacking CuSO4.5H2O were added and the solution was filter-sterilized. Medium containing copper (TAP Cu plus) was prepared by adding CuCl2.2H2O to the TAP Cu minus medium at 20 μM. Test compounds were dissolved in dimethylsulfoxide (DMSO) at 2 mg/mL then dilutions in TAP Cu minus and TAP Cu plus media were prepared in sterilized microcentrifuge tubes at 2 μg/mL. 100 μL aliquots of diluted compound were dispensed into flat-bottomed 96-well microtiter plates. C. reinhardtii was maintained under 12 h of light on TAP agar plates at 18° C. A loopful of cells was added to 50 mL of TAP Cu minus medium and the culture incubated with shaking at 200 rpm at 27° C. for 24 h. The culture (10 to 20 mL aliquot) was centrifuged in a bench centrifuge at 2000 rpm for 2 min. The resulting cell pellet was resuspended in 5 mL sterile milli Q water (which had been treated with Chelex 100 resin using 0.5 g resin per liter of water by stirring at room temperature for 1 h), and recentrifuged. The cells were resuspended in TAP Cu minus medium, and the suspension adjusted to 2×10^5 spores per mL. Microtiter plates containing compounds as described above were inoculated with 100 μL of this cell suspension and the plates incubated at 27° C. for 48 h before assessing algal growth by measuring light scattering in a NepheloStar plate-reader. Growth inhibition was determined by comparing growth in the presence of test compound with growth in control wells lacking test compound. Results for growth inhibition by test compounds at 1 μg/mL in TAP Cu plus medium (% Inhn Plus Copper Observed) were compared with predicted values (% Inhn Plus Copper Predicted) that were calculated using the formula set forth by S. R. Colby in Weeds 1967, 15, 20-22 based on results obtained for the same compounds in TAP Cu minus medium (% Inhn Minus Copper Observed). […] Results illustrate that hydrazones and copper produce a synergistic algicidal effect towards C. reinhardtii.

[1] = test system: Synechocystis sp. strain 6803; assay: Effect of copper on activity of hydrazones: in vitro growth inhibition of Synechocystis in BG-11 Cu minus / Cu plus medium (Example 11); format: cell-based; conditions: 72 h; for % Inhn. Plus Copper Observed: BG-11 Cu plus medium
Description: In vitro toxicity assays against the cyanobacterium (blue-green alga) Synechocystis sp. strain 6803 were conducted using BG-11 medium except that copper micronutrient, normally included as CuSO4.5H2O, was omitted. The medium, termed BG-11 Cu minus, was prepared by dissolving 1.5 g NaNO3, 40 mg K2HPO4, 6 mg citric acid, 1 mg Na2EDTA and 20 mg Na2CO3 in 1 liter of milli Q water and treating the solution with 0.5 g Chelex 100 resin (Bio-Rad Analytical grade, 50-100 mesh, sodium form, cat#142-2822) by stifling at room temperature for 1 h. 900 mL were decanted and 67.5 mg MgSO4.7H2O, 32.4 mg […], 5.4 mg ferric ammonium citrate and 0.9 mL trace metal mix A5 without copper (2.86 g H3BO3, 1.81 g MnCl2.4H2O, 222 mg ZnSO4.7H2O, 390 mg Na2MoO4.2H2O and Co(NO3)2.6H2O in 1 L Milli Q water) was added. The pH was adjusted to 7.1 and the medium was filter-sterilized. Medium containing copper (BG-11 Cu plus) was prepared by adding CuCl2.2H2O to the BG-11 Cu minus medium at 0.2 μM. Test compounds were dissolved in dimethylsulfoxide (DMSO) at 2 mg/mL then appropriate dilutions in BG-11 Cu minus and BG-11 Cu plus media were prepared in sterilized microcentrifuge tubes. 100 μL aliquots were dispensed into flat-bottomed 96-well microtiter plates. Synechocystis was maintained under 24 h of light on BG-11 agar plates at 27° C. A loopful of cells was added to 50 mL of BG-11 Cu minus growth medium and the culture was incubated with shaking at 200 rpm at 27° C. for 24 h. The culture (10 to 20 mL aliquot) was centrifuged in a bench centrifuge at 2400 rpm for 2 min. The resulting cell pellet was resuspended in 5 mL sterile milli Q water (which had been treated with Chelex 100 resin using 0.5 g resin per liter of water by stirring at room temperature for 1 h), and recentrifuged. The cells were resuspended in BG-11 Cu minus medium, and the suspension adjusted to 4×10^5 spores per mL. Microtiter plates containing compounds as described above were inoculated with 100 μL of this cell suspension and the plates incubated at 27° C. for 72 h before assessing algal growth by measuring light scattering in a NepheloStar plate reader. Growth inhibition was determined by comparing growth in the presence of test compound with growth in control wells lacking test compound. Results for growth inhibition by test compounds in BG-11 Cu plus medium (% Inhn Plus Copper Observed) were compared with predicted values (% Inhn Plus Copper Predicted) that were calculated using the formula set forth by S. R. Colby in Weeds 1967, 15, 20-22 based on-results obtained for the same compounds in BG-11 Cu minus medium (% Inhn Minus Copper Observed) and the inhibition attributed to copper chloride alone, as determined by comparing growth in copper-minus and copper-plus media without any test compound across experiments. Results illustrate that hydrazones and copper produce a synergistic algicidal effect towards Synechocystis.

C. reinhardtii = assay: Growth inhibition of C. reinhardtii by hydrazones and isolated metal-hydrazone complexes, TAP Cu minus medium (Example 12); format: cell-based, Chlamydomonas reinhardtii; conditions: for inhibition of growth at 1 µg/mL: Chlamydomonas reinhardtii, parent hydrazone 1 μg/mL, read-out: Hydrazone % Inhn.
Description: In vitro toxicity assays against C. reinhardtii CC-1928 (wild type mt+137c green in dark subclone) obtained from the Chlamydomonas Resource Center at Duke University were conducted using TAP liquid growth medium described by Gorman and Levine Proc. Natl. Acad. Sci. USA 1965, 54, 1665-1669 except that CuSO4.5H2O, normally included as a component of Hutner's trace element stock solution (Hutner et al. Proc. Am. Philos. Soc. 1950, 94, 152-170), was omitted. The TAP medium lacking Cu (TAP Cu minus) was prepared by adding 400 mg NH4Cl, 10 mL of 100× Tris-Acetate (242 g Tris-base and 100 mL glacial acetic acid in 1000 mL milli Q water), and 8.3 mL of 120.5× phosphate buffer (14.34 g K2HPO4 and 7.26 g KH2PO4 in 1000 mL milli Q water) to milli Q water to make a total volume of 1 liter. The medium was treated with 0.5 g Chelex 100 resin (Bio-Rad Analytical grade, 50-100 mesh, sodium form, cat#142-2822) by stirring at room temperature for 1 hour. 900 mL were decanted and 45.9 mg of CaCl2.2H2O, 90 mg of MgSO4.7H2O and 0.9 mL Hutner's trace elements lacking CuSO4.5H2O were added and the solution was filter-sterilized. Medium containing copper (TAP Cu plus) was prepared by adding CuCl2.2H2O to the TAP Cu minus medium at 20 μM. Test compounds were dissolved in dimethylsulfoxide (DMSO) at 2 mg/mL then dilutions in TAP Cu minus and TAP Cu plus media were prepared in sterilized microcentrifuge tubes at 2 μg/mL. 100 μL aliquots of diluted compound were dispensed into flat-bottomed 96-well microtiter plates. C. reinhardtii was maintained under 12 h of light on TAP agar plates at 18° C. A loopful of cells was added to 50 mL of TAP Cu minus medium and the culture incubated with shaking at 200 rpm at 27° C. for 24 h. The culture (10 to 20 mL aliquot) was centrifuged in a bench centrifuge at 2000 rpm for 2 min. The resulting cell pellet was resuspended in 5 mL sterile milli Q water (which had been treated with Chelex 100 resin using 0.5 g resin per liter of water by stirring at room temperature for 1 h), and recentrifuged. The cells were resuspended in TAP Cu minus medium, and the suspension adjusted to 2×10^5 spores per mL. Microtiter plates containing compounds as described above were inoculated with 100 μL of this cell suspension and the plates incubated at 27° C. for 48 h before assessing algal growth by measuring light scattering in a NepheloStar plate-reader. Growth inhibition was determined by comparing growth in the presence of test compound with growth in control wells lacking test compound. Hydrazones and their isolated metal complexes were compared with respect to their in vitro activity toward C. reinhardtii and the cyanobacterium (blue-green alga) Synechocystis sp. strain 6803. Metal complexes of hydrazones were prepared by precipitation from ethanol with various metal salts at 1:1, 2:1 or 3:1 molar ratios, as described in general by Ainscough, Brodie, Dobbs, Ranford, and Waters (Inorganica Chimica Acta 1998, 267, 27-38, which is expressly incorporated by reference herein). In vitro assays against C. reinhardtii were conducted as described in Example 10 using TAP Cu minus medium. Growth inhibition was determined by comparing growth in the presence of test compound with growth in control wells lacking test compound. Results for growth inhibition of C. reinhardtii by hydrazones and corresponding isolated metal complexes (each at 1 μg/mL) are shown in Table 6.

[2] = Synechocystis, Test Concn. 0.05 μg/mL, BG-11 Cu minus medium, read-out: % Inhn. Minus Copper Observed

| melting point [°C] | SMILES | inhibition of growth at 1 µg/mL (C. reinhardtii CC-1928) [%] | % Inhn. Plus Copper Observed (C. reinhardtii CC-1928) [%] | inhibition of growth at 0.05 µg/mL [1, 2] [%] | % Inhn. Plus Copper Observed ([1]; Test Concn. 0.05 μg/mL) [%] | inhibition of growth at 0.025 µg/mL ([1]; Synechocystis, Test Concn. 0.025 μg/mL, BG-11 Cu minus medium, read-out: % Inhn. Minus Copper Observed) [%] | % Inhn. Plus Copper Observed ([1]; Test Concn. 0.025 μg/mL) [%] | inhibition of growth at 0.0125 µg/mL ([1]; Synechocystis, Test Concn. 0.0125 μg/mL, BG-11 Cu minus medium, read-out: % Inhn. Minus Copper Observed) [%] | % Inhn. Plus Copper Observed ([1]; Test Concn. 0.0125 μg/mL) [%] | inhibition of growth at 1 µg/mL (C. reinhardtii) [%] | Complex % Inhn. (C. reinhardtii; isolated metal complex 1 μg/mL) [%] |
| --- | --- | --- | --- | --- | --- | --- | --- | --- | --- | --- | --- |
| 258 to 266 | Cc1ccc(C(=O)N/N=C/c2cccc(Cl)c2O)c(O)c1 [Compound 55] | -3 | 97 | 68 | 92 |  |  |  |  |  |  |
| 278 to 280 | O=C(N/N=C/c1c(C(F)(F)F)ccc(Cl)c1O)c1ccccc1O [Compound 57] | -11 | 95 | 61 | 92 |  |  |  |  |  |  |
| 245 | C/C(=N\NC(=O)c1c(C)cccc1O)c1cc(Cl)cc(Cl)c1O [Compound 58] | 3 | 93 |  |  | 46 | 64 |  |  |  |  |
| 195 to 200 | C/C(=N\NC(=O)c1ccc(C)cc1)c1cccc(Cl)c1O [Compound 59] | -6 | 92 | 1 | 93 |  |  |  |  |  |  |
| 244 to 252 | C/C(=N\NC(=O)c1ccc(Br)cc1)c1cccc([N+](=O)[O-])c1O [Compound 60] | -50 | 89 |  |  |  |  | 33 | 50 |  |  |
| 242 to 245 | C/C(=N\NC(=O)c1ccccc1)c1cc(Br)cc(Br)c1O [Compound 61] | -56 | 94 | 61 | 96 |  |  |  |  |  |  |
| 276 to 280 | C/C(=N\NC(=O)c1ccc(Cl)cc1)c1cc(F)cc(F)c1O [Compound 62] | 0 | 95 | 60 | 95 |  |  |  |  |  |  |
|  | O=C(N/N=C/c1cc(Cl)cc(Cl)c1O)c1ccc(Cl)cc1 [Compound 64] | -5 | 97 |  |  |  |  |  |  | -5 |  |
| 245 to 246 | C/C(=N\NC(=O)c1cccc(Cl)c1)c1cc(Cl)cc(Cl)c1O [Compound 65] | -5 | 97 |  |  |  |  |  |  | -5 |  |
| 232 to 234 | O=C(N/N=C/c1cc(Cl)cc(C(F)(F)F)c1O)c1ccc(Cl)cc1 [Compound 66] | -4 | 97 |  |  |  |  |  |  | -4 |  |
|  | C/C(=N\NC(=O)c1cccc(C)c1)c1cc(Cl)cc(Cl)c1O.[Cl-].[Cl-].[Cu+2] [Compound 90] |  |  |  |  |  |  |  |  |  | 49 |
